Experimental data published in PubChem BioAssay (NCI).
Where “and” joins values, the source holds several entries; their conditions need not be identical. Equal entries are not always repeated.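 A five-concentration, 48-hour dose response in 96-well plates underlies each endpoint, interpolated linearly between surrounding concentrations. GI50 marks 50% less growth. TGI is the concentration that stops growth completely.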

How the values were obtained:
Assay in all cases: NCI-60 cell line screen, 48 h
UO-31 renal = test system: UO-31 renal
SW-620 colon = test system: SW-620 colon
HOP-92 NSCLC = test system: HOP-92 NSCLC
OVCAR-5 ovarian = test system: OVCAR-5 ovarian
HOP-62 NSCLC = test system: HOP-62 NSCLC
A549 NSCLC = test system: A549 NSCLC
SNB-19 CNS = test system: SNB-19 CNS
A498 renal = test system: A498 renal
HT29 colon = test system: HT29 colon
NCI-H460 lung = test system: NCI-H460 lung

Compound	GI50 (UO-31 renal)	TGI (UO-31 renal)	GI50 (SW-620 colon)	TGI (SW-620 colon)	GI50 (HOP-92 NSCLC)	TGI (HOP-92 NSCLC)	GI50 (OVCAR-5 ovarian)	TGI (OVCAR-5 ovarian)	GI50 (HOP-62 NSCLC)	TGI (HOP-62 NSCLC)	GI50 (A549 NSCLC)	TGI (A549 NSCLC)	GI50 (SNB-19 CNS)	TGI (SNB-19 CNS)	GI50 (A498 renal)	TGI (A498 renal)	GI50 (HT29 colon)	TGI (HT29 colon)	GI50 (NCI-H460 lung)	TGI (NCI-H460 lung)
O=C1CCC/C=C\C[C@H]2C=CC(=O)/C2=C/C[C@H](C/C=C\CC(F)(F)F)O1	0.298 µM	0.624 µM	508 nM	2.05 µM	1850 nM	5.01 µM	0.67 µM	3.11 µM	0.333 µM	0.757 µM	0.528 µM	2.38 µM	0.867 µM	3.71 µM	2.56 µM	4.89 µM	0.352 µM	0.696 µM	0.508 µM	1.73 µM
C=CCc1ccc(O)c(-c2ccc(O)c(CC=C)c2)c1	12.4 µM	27.3 µM	18700 nM	36.9 µM	13900 nM	31.1 µM	16.8 µM	38.9 µM	20 µM	39.8 µM	30.7 µM	> 100 µM	21.1 µM	37 µM	17.4 µM	31.9 µM	23.3 µM	53.8 µM	14.1 µM	35.3 µM
CN1CC[C@@H](c2c(O)cc(O)c3c(=O)cc(-c4ccc(C(F)(F)F)cc4Cl)oc23)[C@@H]1CO	11 µM	37.8 µM	14700 nM	31.5 µM	13000 nM	40.3 µM	14.1 µM	59.3 µM	17.2 µM	43.5 µM	23.9 µM	56.2 µM	21 µM	62.7 µM	14.2 µM	27.6 µM	17.6 µM	33.9 µM	15.8 µM	31.4 µM
CC1(Br)Cc2ccccc2C1=O (centres undefined)		20.2 µM	444 nM	2.69 µM		16.5 µM		14.2 µM		29.1 µM		32.4 µM		81.8 µM		57.2 µM		15.4 µM	> 100 µM	> 100 µM
Cn1c(Nc2ccc(C(F)(F)F)cc2)nc2cc(Oc3ccnc(-c4ncc(C(F)(F)F)[nH]4)c3)ccc21	0.239 µM	10.2 µM	578 nM	12.7 µM	408 nM	7.26 µM	1.53 µM	17.4 µM	2.85 µM	18.6 µM	0.231 µM	11.7 µM	1.04 µM	20.1 µM	0.0297 µM	0.851 µM	0.124 µM	3.56 µM	0.197 µM	7.61 µM
COc1ccc(/C(=C\C=C(C#N)C#N)Sc2nc3ccccc3s2)cc1	15.6 µM	> 50 µM	1770 nM	> 50 µM	717 nM	4.14 µM	7.65 µM	15.1 µM	8.16 µM	16.7 µM	15.5 µM	> 50 µM	12.6 µM	29.6 µM	16.4 µM	28.5 µM	1.54 µM	6.06 µM	11.7 µM	> 50 µM
CC(C)(C)[Si](C)(C)OC1C(=O)C[C@H]2CCCC[C@@H]12 (some centres undefined)		> 100 µM		> 100 µM		> 100 µM		> 100 µM		> 100 µM		> 100 µM		> 100 µM		> 100 µM		> 100 µM		> 100 µM
CCCCCCCN=C(N)c1ccc(N2CCN(c3ccc(C(N)=NCCCCCCC)cc3)CC2)cc1	0.781 µM	> 100 µM	259 nM	> 31.7 µM	463 nM	> 100 µM	0.849 µM	29.3 µM	2.5 µM	> 100 µM	0.26 µM	15 µM	0.643 µM	17.4 µM	3.32 µM	> 100 µM	2.98 µM	> 100 µM		> 80.8 µM
Cc1ccc(S(=O)OCc2c(C)c(C)c(COS(=O)c3ccc(C)cc3)c(C)c2C)cc1 (centres undefined)		> 100 µM		> 100 µM		> 100 µM		> 100 µM		> 100 µM		> 100 µM		> 100 µM		> 100 µM		> 100 µM		> 100 µM
C=COC(=O)N[C@H]1CCc2cc(OC)c(OC)c(OC)c2-c2ccc(SC)c(=O)cc21		74.9 µM		> 100 µM		22.8 µM		> 75 µM		> 86.6 µM		72.7 µM		24.8 µM		0.395 µM		0.149 µM		0.991 µM
CC(C)OC(=O)[C@H](C)NP(=O)(OC[C@H]1O[C@@H](n2ccc(=O)[nH]c2=O)[C@](C)(F)[C@@H]1O)Oc1ccccc1 (some centres undefined)	> 100 µM	> 100 µM	> 100000 nM	> 100 µM	> 100000 nM	> 100 µM	> 100 µM	> 100 µM	> 100 µM	> 100 µM	> 100 µM	> 100 µM	> 100 µM	> 100 µM	> 100 µM	> 100 µM	> 100 µM	> 100 µM	> 100 µM	> 100 µM
O=C1c2cccc3cccc(c23)C(=O)N1CCCCCN1CCN(CCCCCOc2ccc(-c3nc4ccc(N5CCOCC5)cc4[nH]3)cc2)CC1	3.47 µM	34.7 µM	1830 nM	4.21 µM	25100 nM	> 58.2 µM	> 100 µM	> 100 µM	35.7 µM	79.2 µM	2.22 µM	5.26 µM	> 46.1 µM	> 60 µM	> 74.9 µM	> 100 µM	5.99 µM	23.8 µM	16.8 µM	30.8 µM
C/C(=N\NC(=S)N1CCCCCC1)c1ccccn1	0.134 µM	4.01 µM and 4.33 µM	< 20.4 nM	1.85 µM and 4.74 µM	217 nM	0.3 µM	< 0.0165 µM	2.67 µM and 3.98 µM	0.0381 µM	2.4 µM and 3.98 µM	< 0.0188 µM	6.46 µM and 2.49 µM	0.101 µM	4.38 µM and 6.44 µM	0.163 µM	2.59 µM and 1.57 µM		2.52 µM and 10.6 µM	0.0421 µM	1.47 µM and 2.22 µM
COC(=O)c1ccc(-c2c(C#N)[n+](=O)c3cc(Cl)c(Cl)cc3n2[O-])cc1	26.3 µM	67.3 µM	17800 nM	45.4 µM	11100 nM	34.9 µM	19.2 µM	39.4 µM	16.8 µM	34.8 µM	47.4 µM	> 100 µM	18.2 µM	38.9 µM	38.6 µM	> 100 µM	19.9 µM	58 µM	18.6 µM	44.7 µM
CN(C)c1ccc(N=Nc2ccccn2)c(O)c1	0.215 µM		419 nM	> 100 µM	666 nM	50.2 µM	0.992 µM	> 100 µM	0.311 µM	> 54 µM	0.478 µM	> 100 µM	0.501 µM	> 100 µM	3.02 µM	19.1 µM	0.415 µM	> 100 µM	0.296 µM	> 32.1 µM
CC12CCC3c4ccc(O)cc4CCC3C1C/C(=N\O)C2O (centres undefined)		> 100 µM		> 100 µM		> 100 µM		> 100 µM		> 100 µM		> 100 µM		> 100 µM		> 100 µM		> 100 µM		> 100 µM
O=C(NNc1ccccc1)C(=O)NNc1ccccc1	> 100 µM	> 100 µM	7300 nM	> 100 µM	> 100000 nM	> 100 µM	> 100 µM	> 100 µM	> 100 µM	> 100 µM	3.53 µM	> 100 µM	> 100 µM	> 100 µM	> 100 µM	> 100 µM	> 100 µM	> 100 µM	3.47 µM	> 100 µM
BrCc1cccc(C[P+](c2ccccc2)(c2ccccc2)c2ccccc2)c1	> 100 µM	> 100 µM	22300 nM	> 100 µM	2840 nM	52.4 µM	30.2 µM	> 100 µM	4.86 µM	> 100 µM	42.3 µM	> 100 µM	12.1 µM	> 100 µM	59.5 µM	> 100 µM	14.9 µM	> 100 µM	25 µM	> 100 µM
